Laboratory results reported in patent US8614206B2 (Genentech, Inc., priority 2011, dated 2013).
Read-outs that look alike come from different tables or passages of the source.

How the values were obtained:
BaF3 parental cells = assay: In vitro cell proliferation, BaF3 parental line + IL3 (CellTiter-Glo); format: cell-based, murine; conditions: read-out: Prolif BaF3 + IL3 (IC50)
Protocol: BaF3 parental line was obtained from the DSMZ repository. BaF3 lines transfected with PIM 1 or PIM2 were generated. Mouse IL-3 was purchased from R&D Systems. G418 was purchased from Clontech. Media for BaF3 parental line contained RPMI, 10% FBS, 2 mM L-Glutamine, 2 ng/mL mIL-3. Media for BaF3 PIM1 & 2 lines contained RPMI, 10% FBS, 2 mM L-Glutamine, 250 μg/mL.
BaF3, a murine interleukin-3 dependent pro-B cell line, parental cells, BaF3 PIM1 cells, BaF3 PIM2 cells, and MM1.S (multiple myeloma) cells were seeded at 2 k/well, 5 k/well, 5 k/well, and 10 k/well respectively, in a 384-well plate, at 45 μL/well. Test compound was added at 5 μL/well. BaF3 cells (parental and transfected) were incubated overnight, while MM1.S cells were incubated for 72 hours at 37° C., 5% CO2. CELL TITER GLO® Reagent (Promega) was added at 50 μL/well, the plates were incubated for 30 minutes, and their luminescence read on an HT Analyst. IC50/EC50 values for the test compound were calculated.

PIM1 = PIM1 (Homo sapiens (Human), UniProt P11309); assay: Pim kinase inhibition, PIM1 LC3K (Example 901); format: biochemical
Source text: Determination of the Pim kinase activity of a Formula I compound is possible by a number of direct and indirect detection methods.

BaF3 PIM1 cells = assay: cells; conditions: Mus musculus, BaF3, read-out: Prolif BaF3_PIM1 (IC50), BaF3 PIM1 cells, incubated overnight
[1] = system: MM1.S (multiple myeloma) cells; assay: In vitro cell proliferation, MM1.S multiple myeloma cells (CellTiter-Glo, ATP); format: cell-based; conditions: read-out: Prolif MM1S ATP (EC50)
Protocol: BaF3, a murine interleukin-3 dependent pro-B cell line, parental cells, BaF3 PIM1 cells, BaF3 PIM2 cells, and MM1.S (multiple myeloma) cells were seeded at 2 k/well, 5 k/well, 5 k/well, and 10 k/well respectively, in a 384-well plate, at 45 μL/well. Test compound was added at 5 μL/well. BaF3 cells (parental and transfected) were incubated overnight, while MM1.S cells were incubated for 72 hours at 37° C., 5% CO2. […] IC50/EC50 values for the test compound were calculated.

[2] = Mus musculus, BaF3, BaF3 parental cells with IL-3, incubated overnight
[3] = BaF3 parental cells with IL-3, incubated overnight

Chain of PIM1 (P11309 whole entry): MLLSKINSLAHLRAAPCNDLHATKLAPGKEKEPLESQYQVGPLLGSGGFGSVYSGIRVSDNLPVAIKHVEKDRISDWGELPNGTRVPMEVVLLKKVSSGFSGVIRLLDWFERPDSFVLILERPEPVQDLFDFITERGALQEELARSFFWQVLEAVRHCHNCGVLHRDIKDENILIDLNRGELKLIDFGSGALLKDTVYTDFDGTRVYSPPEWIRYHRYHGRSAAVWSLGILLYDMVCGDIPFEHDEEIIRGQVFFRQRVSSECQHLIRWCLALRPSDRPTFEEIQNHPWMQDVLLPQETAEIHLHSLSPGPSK

| SMILES | EC50 ([1]; Homo sapiens, MM1.S, 72 h) | IC50 (BaF3 parental cells; [2]) | further results |
| --- | --- | --- | --- |
| Cn1ncc(NC(=O)c2nc(-c3ccncc3F)sc2N)c1N1CCC(N)CC(F)(F)C1 (racemic) [Example 426, 5-amino-N-[5-(5-amino-3,3-difluoro-azepan-1-yl)-1-methyl-pyrazol-4-yl]-2-(3-fluoro-4-pyridyl)thiazole-4-carboxamide] |  | 24.8 µM | Ki (PIM1): 0.034 nM; IC50 (BaF3 PIM1 cells): 0.0251 µM |
| Cn1ncc(NC(=O)c2nc(-c3ccccc3F)sc2N)c1N1CCCC(C)(N)CC1 (single isomer, unassigned) [Example 434, 5-amino-N-[5-(4-amino-4-methyl-azepan-1-yl)-1-methyl-pyrazol-4-yl]-2-(2-fluorophenyl)thiazole-4-carboxamide] |  | 15.5 µM | Ki (PIM1): 0.093 nM; IC50 (BaF3 PIM1 cells): 1 µM |
| CO[C@H]1CC=C(c2c(NC(=O)c3nc(-c4c(F)cccc4F)sc3N)cnn2C)CC[C@@H]1N [Example 410, 5-amino-N-(5-((4S,5S)-5-amino-4-methoxycyclohept-1-enyl)-1-methyl-1H-pyrazol-4-yl)-2-(2,6-difluorophenyl)thiazole-4-carboxamide] | 0.693 µM | 9.2 µM |  |
| Cn1ncc(NC(=O)c2nc(-c3c(F)cccc3F)sc2N)c1N1CCCC(C)(N)CC1 (stereo not shown) [Example 435, 5-amino-N-[5-(4-amino-4-methyl-azepan-1-yl)-1-methyl-pyrazol-4-yl]-2-(2,6-difluorophenyl)thiazole-4-carboxamide] | 1.8 µM | 9.8 µM |  |
| [2H]C([2H])([2H])n1ncc(NC(=O)c2nc(-c3c(F)cccc3F)sc2N)c1N1CC[C@@H](N)[C@H](F)CC1 [Example 451, 5-amino-N-[5-[(4R,5R)-4-amino-5-fluoro-azepan-1-yl]-1-(trideuteriomethyl)pyrazol-4-yl]-2-(2,6-difluorophenyl)thiazole-4-carboxamide] | 0.124 µM | 9.4 µM |  |
| Cn1ncc(NC(=O)c2nc(-c3c(F)cccc3F)sc2N)c1N1CCC2(CC1)CNCCO2 [Example 484, 5-amino-2-(2,6-difluorophenyl)-N-[1-methyl-5-(1-oxa-4,9-diazaspiro[5.5]undecan-9-yl)pyrazol-4-yl]thiazole-4-carboxamide] | 13.7 µM | 14.3 µM |  |
| [2H]C([2H])([2H])OC1CCN(c2c(NC(=O)c3nc(-c4c(F)cccc4F)sc3N)cnn2C)CCC1N (stereo not shown) [Example 492, 5-amino-N-[5-[4-amino-5-(trideuteriomethoxy)azepan-1-yl]-1-methyl-pyrazol-4-yl]-2-(2,6-difluorophenyl)thiazole-4-carboxamide] | 0.0737 µM | 20.4 µM |  |
| Cn1ncc(NC(=O)c2nc(-c3c(F)cccc3F)sc2N)c1N1CCC(C)(N)CC(F)(F)C1 (stereo not shown) [Example 495, 5-amino-N-[5-(5-amino-3,3-difluoro-5-methyl-azepan-1-yl)-1-methyl-pyrazol-4-yl]-2-(2,6-difluorophenyl)thiazole-4-carboxamide] | 0.888 µM | 5.4 µM |  |
| CC[C@H]1CN(c2c(NC(=O)c3nc(-c4c(F)cccc4F)sc3N)cnn2C)CC[C@@]1(CN)OC [Example 496, 5-amino-N-(5-((3S,4R)-4-(aminomethyl)-3-ethyl-4-methoxypiperidin-1-yl)-1-methyl-1H-pyrazol-4-yl)-2-(2,6-difluorophenyl)thiazole-4-carboxamide] | 19.6 µM | 11.6 µM |  |
| COC1CCC(c2c(NC(=O)c3nc(-c4ccccc4F)sc3N)cnn2C)CCC1N (stereo not shown) [Example 504] | 10.5 µM | 15.3 µM |  |
| COC1CCC(c2c(NC(=O)c3nc(-c4ccccc4F)sc3N)cnn2C)CCC1N (stereo not shown) [Example 506] |  |  | IC50 (BaF3 parental cells; [3]): 17.1 µM; EC50 ([1]; 72 hours): 11.7 µM |
| Cn1ncc(NC(=O)c2nc(-c3c(F)cccc3F)sc2N)c1N1CCCC2(CNC2)C1 [Example 508, 5-amino-N-[5-(2,6-diazaspiro[3.5]nonan-6-yl)-1-methyl-pyrazol-4-yl]-2-(2,6-difluorophenyl)thiazole-4-carboxamide] | 3 µM | 25 µM |  |
| CCOC1CCN(c2c(NC(=O)c3nc(-c4c(F)cccc4F)sc3N)cnn2C)CCC1N (stereo not shown) [Example 514, 5-amino-N-[5-(4-amino-5-ethoxy-azepan-1-yl)-1-methyl-pyrazol-4-yl]-2-(2,6-difluorophenyl)thiazole-4-carboxamide] |  | 15.4 µM | EC50 ([1]; 72 hours): 3.1 µM |
| CCOC1CCN(c2c(NC(=O)c3nc(-c4c(F)cccc4F)sc3N)cnn2C)CCC1N (stereo not shown) [Example 515, 5-amino-N-[5-(4-amino-5-ethoxy-azepan-1-yl)-1-methyl-pyrazol-4-yl]-2-(2,6-difluorophenyl)thiazole-4-carboxamide] |  |  | IC50 (BaF3 parental cells; [3]): 14.7 µM; EC50 ([1]; 72 hours): 0.0733 µM |

More lines, main results first:

| EC50 ([1]; Homo sapiens, MM1.S, 72 h) | SMILES | IC50 (BaF3 parental cells; [2]) | further results |
| --- | --- | --- | --- |
| 6.5 µM | Cn1ncc(NC(=O)c2nc(-c3c(F)cccc3F)sc2N)c1N1CC[C@H](O)[C@@](C)(N)CC1 [Example 424, 5-amino-N-(5-((4S,5S)-4-amino-5-hydroxy-4-methylazepan-1-yl)-1-methyl-1H-pyrazol-4-yl)-2-(2,6-difluorophenyl)thiazole-4-carboxamide] | > 25 µM |  |
| 4.2 µM | C=C1C[C@@H](N)CCN(c2c(NC(=O)c3nc(-c4c(F)cccc4F)sc3N)cnn2C)C1 [Example 449, 5-amino-N-[5-[(5R)-5-amino-3-methylene-azepan-1-yl]-1-methyl-pyrazol-4-yl]-2-(2,6-difluorophenyl)thiazole-4-carboxamide] | 8.5 µM |  |
| 3.2 µM | CC1CC(N)CCN(c2c(NC(=O)c3nc(-c4c(F)cccc4F)sc3N)cnn2C)C1 (stereo not shown) [Example 453, 5-amino-N-[5-(5-amino-3-methyl-azepan-1-yl)-1-methyl-pyrazol-4-yl]-2-(2,6-difluorophenyl)thiazole-4-carboxamide] | 14.1 µM |  |
| 4 µM | Cn1ncc(NC(=O)c2nc(-c3c(F)cccc3F)sc2N)c1N1CC[C@@H](O)[C@@H](O)CC1 [Example 457, 5-amino-2-(2,6-difluorophenyl)-N-(5-((4R,5S)-4,5-dihydroxyazepan-1-yl)-1-methyl-1H-pyrazol-4-yl)thiazole-4-carboxamide] | > 25 µM |  |
| 0.415 µM | COC1(C)CCN(c2c(NC(=O)c3nc(-c4c(F)cccc4F)sc3N)cnn2C)CCC1N (stereo not shown) [Example 485, 5-amino-N-[5-(5-amino-4-methoxy-4-methyl-azepan-1-yl)-1-methyl-pyrazol-4-yl]-2-(2,6-difluorophenyl)thiazole-4-carboxamide] | 11.6 µM |  |
| 8.8 µM | Cn1ncc(NC(=O)c2nc(-c3c(F)cccc3F)sc2N)c1N1CC[C@@H](O)[C@H](O)CC1 [Example 490, 5-amino-2-(2,6-difluorophenyl)-N-(5-((4R,5R)-4,5-dihydroxyazepan-1-yl)-1-methyl-1H-pyrazol-4-yl)thiazole-4-carboxamide] | > 25 µM |  |
| 7.2 µM | Cn1ncc(NC(=O)c2nc(-c3c(F)cccc3F)sc2N)c1N1CCC(N)C(CO)CC1 (stereo not shown) [Example 513, 5-amino-N-[5-[4-amino-5-(hydroxymethyl)azepan-1-yl]-1-methyl-pyrazol-4-yl]-2-(2,6-difluorophenyl)thiazole-4-carboxamide] | > 25 µM |  |
| 9.9 µM | CO[C@@H]1CCN(c2c(NC(=O)c3nc(-c4c(F)cccc4F)sc3N)cnn2C)CC2(CC2)[C@@H]1N [Example 517, 5-amino-N-(5-((8R,9S)-9-amino-8-methoxy-5-azaspiro[2.6]nonan-5-yl)-1-methyl-1H-pyrazol-4-yl)-2-(2,6-difluorophenyl)thiazole-4-carboxamide] | 11.9 µM |  |
